{"source": "paper doi:10.1101/2024.08.13.607785v1", "about": "(biorxiv, 2024)", "design_in_all_cases": "species or system mixed lysate of K562, MV4-11, THP-1, NCI-H1155", "key": {"[1]": {"biological_target": "Phosphatidylinositol 4-kinase alpha ; PI4KA ; P42356 (Homo sapiens, UniProt P42356)", "sequence (P42356 whole entry)": "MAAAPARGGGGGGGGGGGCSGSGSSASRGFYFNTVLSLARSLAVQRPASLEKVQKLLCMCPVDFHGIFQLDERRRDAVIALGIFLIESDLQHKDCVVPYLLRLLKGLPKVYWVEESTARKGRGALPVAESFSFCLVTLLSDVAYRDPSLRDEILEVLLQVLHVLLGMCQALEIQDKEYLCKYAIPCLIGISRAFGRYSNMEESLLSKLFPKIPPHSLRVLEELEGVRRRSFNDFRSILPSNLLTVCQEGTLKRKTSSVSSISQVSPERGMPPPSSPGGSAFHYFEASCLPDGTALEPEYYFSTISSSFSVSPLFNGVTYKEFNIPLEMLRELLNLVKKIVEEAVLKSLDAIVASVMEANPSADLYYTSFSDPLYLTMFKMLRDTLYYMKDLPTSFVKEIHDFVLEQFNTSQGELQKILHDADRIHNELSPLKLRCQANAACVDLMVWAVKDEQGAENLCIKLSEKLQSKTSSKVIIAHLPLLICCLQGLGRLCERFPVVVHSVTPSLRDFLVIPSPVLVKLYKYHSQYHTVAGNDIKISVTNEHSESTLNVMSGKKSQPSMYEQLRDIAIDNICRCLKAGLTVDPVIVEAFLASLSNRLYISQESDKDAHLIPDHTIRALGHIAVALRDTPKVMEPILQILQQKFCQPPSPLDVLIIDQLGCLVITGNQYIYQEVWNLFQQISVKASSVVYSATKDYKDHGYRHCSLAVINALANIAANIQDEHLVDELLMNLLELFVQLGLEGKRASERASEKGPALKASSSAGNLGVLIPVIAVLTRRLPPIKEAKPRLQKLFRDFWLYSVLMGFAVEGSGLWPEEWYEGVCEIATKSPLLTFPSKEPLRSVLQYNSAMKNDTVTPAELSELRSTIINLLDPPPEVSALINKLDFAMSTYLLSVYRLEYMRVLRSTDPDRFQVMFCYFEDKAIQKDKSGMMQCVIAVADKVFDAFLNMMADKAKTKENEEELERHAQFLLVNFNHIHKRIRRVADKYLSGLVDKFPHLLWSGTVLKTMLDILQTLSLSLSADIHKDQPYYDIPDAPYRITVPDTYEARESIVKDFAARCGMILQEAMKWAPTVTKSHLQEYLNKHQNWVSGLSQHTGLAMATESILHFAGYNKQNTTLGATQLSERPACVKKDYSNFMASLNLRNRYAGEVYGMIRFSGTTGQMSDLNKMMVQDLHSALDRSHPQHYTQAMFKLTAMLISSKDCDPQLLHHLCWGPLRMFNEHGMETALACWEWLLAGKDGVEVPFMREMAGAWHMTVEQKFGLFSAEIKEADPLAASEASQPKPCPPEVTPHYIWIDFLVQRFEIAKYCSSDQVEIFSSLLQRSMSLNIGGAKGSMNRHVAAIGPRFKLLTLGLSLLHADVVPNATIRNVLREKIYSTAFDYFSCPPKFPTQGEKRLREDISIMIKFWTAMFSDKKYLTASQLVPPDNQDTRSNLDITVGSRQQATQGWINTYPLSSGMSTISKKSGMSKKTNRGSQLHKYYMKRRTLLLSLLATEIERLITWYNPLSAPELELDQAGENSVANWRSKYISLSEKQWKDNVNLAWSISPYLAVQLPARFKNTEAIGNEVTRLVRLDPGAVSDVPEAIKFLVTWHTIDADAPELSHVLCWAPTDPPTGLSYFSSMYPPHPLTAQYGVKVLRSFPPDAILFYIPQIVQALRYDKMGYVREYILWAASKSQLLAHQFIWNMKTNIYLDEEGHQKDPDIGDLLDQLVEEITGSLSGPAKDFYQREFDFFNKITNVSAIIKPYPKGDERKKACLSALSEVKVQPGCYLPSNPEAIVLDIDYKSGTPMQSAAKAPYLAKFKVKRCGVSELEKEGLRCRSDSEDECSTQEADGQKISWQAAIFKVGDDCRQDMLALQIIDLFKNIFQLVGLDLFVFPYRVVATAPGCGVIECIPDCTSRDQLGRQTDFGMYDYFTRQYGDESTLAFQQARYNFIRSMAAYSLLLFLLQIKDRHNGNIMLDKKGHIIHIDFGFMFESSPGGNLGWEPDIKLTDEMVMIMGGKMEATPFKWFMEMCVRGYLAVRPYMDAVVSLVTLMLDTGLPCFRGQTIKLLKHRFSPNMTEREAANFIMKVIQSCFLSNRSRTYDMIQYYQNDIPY", "conditions": "DIA-MS residual binding; binder"}, "[2]": {"biological_target": "LIM domain kinase 2 ; LIMK2 ; P53671 (Homo sapiens, UniProt P53671)", "conditions": "DIA-MS residual binding; binder"}, "[3]": {"biological_target": "Isoform 3 of Membrane-associated tyrosine- and threonine-specific cdc2 ; PKMYT1-3 ; Q99640-3 (Homo sapiens, UniProt Q99640)", "sequence (Q99640 whole entry, canonical isoform, one chain of several)": "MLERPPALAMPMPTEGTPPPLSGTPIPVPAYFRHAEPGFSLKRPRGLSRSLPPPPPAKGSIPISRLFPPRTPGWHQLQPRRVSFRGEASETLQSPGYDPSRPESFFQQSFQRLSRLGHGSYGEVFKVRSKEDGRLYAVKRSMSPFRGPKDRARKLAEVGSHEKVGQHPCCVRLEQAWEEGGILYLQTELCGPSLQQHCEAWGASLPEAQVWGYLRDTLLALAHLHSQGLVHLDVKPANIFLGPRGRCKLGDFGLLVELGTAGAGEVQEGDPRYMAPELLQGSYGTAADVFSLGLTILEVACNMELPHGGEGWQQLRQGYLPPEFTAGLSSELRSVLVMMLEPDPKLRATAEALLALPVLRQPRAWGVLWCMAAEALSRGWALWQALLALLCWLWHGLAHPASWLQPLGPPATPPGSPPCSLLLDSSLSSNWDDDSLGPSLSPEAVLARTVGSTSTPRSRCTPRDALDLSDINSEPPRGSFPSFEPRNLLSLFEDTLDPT", "conditions": "binder"}, "[4]": {"biological_target": "Mitogen-activated protein kinase kinase kinase 4 ; MAP3K4 ; Q9Y6R4 (Homo sapiens, UniProt Q9Y6R4)", "sequence (Q9Y6R4 whole entry)": "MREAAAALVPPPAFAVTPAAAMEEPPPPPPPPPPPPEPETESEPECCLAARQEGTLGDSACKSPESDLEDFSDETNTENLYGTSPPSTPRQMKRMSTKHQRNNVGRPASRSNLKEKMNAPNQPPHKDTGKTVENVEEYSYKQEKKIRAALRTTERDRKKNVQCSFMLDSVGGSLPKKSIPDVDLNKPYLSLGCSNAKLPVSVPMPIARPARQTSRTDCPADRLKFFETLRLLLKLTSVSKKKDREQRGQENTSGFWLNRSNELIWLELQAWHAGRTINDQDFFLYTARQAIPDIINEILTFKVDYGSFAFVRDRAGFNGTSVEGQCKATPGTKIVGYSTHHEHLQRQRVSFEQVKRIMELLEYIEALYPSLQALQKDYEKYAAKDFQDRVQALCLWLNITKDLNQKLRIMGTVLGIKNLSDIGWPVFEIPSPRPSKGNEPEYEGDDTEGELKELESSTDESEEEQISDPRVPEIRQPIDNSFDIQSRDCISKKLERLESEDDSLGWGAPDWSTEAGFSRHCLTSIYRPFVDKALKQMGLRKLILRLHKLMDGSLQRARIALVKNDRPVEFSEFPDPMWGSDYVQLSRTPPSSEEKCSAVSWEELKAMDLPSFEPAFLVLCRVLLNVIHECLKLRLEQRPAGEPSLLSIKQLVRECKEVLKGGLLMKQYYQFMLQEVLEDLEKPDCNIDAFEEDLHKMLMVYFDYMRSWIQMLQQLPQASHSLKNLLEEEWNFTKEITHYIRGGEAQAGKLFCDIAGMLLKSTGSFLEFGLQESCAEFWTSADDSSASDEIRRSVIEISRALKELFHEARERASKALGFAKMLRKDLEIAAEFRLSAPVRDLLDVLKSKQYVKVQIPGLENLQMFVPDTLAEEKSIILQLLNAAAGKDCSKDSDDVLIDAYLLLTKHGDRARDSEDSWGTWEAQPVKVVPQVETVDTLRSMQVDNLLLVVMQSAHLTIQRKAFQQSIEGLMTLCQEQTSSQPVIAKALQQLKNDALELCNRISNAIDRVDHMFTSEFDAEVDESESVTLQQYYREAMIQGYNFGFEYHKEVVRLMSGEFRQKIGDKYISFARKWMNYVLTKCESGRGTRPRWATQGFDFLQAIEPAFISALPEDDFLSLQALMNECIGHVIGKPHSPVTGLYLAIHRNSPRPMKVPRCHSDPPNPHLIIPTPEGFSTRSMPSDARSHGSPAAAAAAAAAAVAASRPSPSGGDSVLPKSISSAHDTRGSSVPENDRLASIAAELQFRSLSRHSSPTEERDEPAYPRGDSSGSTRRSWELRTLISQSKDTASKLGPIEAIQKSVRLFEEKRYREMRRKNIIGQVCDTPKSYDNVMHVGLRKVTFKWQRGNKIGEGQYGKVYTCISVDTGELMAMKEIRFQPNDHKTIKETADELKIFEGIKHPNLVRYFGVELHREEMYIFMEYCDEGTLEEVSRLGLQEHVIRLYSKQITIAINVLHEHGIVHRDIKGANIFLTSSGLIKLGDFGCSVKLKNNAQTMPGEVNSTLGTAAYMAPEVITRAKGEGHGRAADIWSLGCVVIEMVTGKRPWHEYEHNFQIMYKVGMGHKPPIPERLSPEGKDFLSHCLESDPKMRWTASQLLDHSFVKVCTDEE", "conditions": "binder"}, "[5]": {"biological_target": "T1, Ephrin type-B receptor 1 ; EPHB1 ; P54762 (Homo sapiens, UniProt P54762)", "T1 sequence (P54762 1-984)": "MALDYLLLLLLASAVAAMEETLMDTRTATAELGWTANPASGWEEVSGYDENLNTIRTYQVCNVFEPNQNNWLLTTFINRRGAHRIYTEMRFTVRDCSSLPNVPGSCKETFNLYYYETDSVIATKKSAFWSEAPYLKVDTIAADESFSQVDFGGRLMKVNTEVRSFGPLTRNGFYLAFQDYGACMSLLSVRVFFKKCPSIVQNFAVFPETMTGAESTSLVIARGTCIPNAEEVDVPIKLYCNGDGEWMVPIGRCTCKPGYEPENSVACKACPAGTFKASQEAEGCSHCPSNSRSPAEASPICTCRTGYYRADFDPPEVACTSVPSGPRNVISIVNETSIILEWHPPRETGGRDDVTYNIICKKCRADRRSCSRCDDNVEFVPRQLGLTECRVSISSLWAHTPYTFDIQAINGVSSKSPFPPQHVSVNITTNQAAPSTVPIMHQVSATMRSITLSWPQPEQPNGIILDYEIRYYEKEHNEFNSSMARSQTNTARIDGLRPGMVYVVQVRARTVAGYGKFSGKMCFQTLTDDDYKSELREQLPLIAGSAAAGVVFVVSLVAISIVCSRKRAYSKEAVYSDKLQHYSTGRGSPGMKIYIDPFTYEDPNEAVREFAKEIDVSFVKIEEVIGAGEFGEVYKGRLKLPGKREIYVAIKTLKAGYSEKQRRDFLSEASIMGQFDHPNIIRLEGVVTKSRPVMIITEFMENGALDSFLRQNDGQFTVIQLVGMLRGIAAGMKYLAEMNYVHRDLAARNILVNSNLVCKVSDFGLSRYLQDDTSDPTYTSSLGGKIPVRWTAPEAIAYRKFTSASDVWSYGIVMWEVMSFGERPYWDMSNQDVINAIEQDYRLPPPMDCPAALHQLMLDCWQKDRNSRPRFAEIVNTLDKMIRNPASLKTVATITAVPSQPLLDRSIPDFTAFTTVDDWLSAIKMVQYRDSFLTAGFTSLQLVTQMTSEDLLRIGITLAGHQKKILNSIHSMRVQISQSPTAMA", "conditions": "DIA-MS residual binding; binder"}, "[6]": {"biological_target": "Integrin-linked protein kinase ; ILK ; Q13418 (Homo sapiens, UniProt Q13418)", "sequence (Q13418 whole entry)": "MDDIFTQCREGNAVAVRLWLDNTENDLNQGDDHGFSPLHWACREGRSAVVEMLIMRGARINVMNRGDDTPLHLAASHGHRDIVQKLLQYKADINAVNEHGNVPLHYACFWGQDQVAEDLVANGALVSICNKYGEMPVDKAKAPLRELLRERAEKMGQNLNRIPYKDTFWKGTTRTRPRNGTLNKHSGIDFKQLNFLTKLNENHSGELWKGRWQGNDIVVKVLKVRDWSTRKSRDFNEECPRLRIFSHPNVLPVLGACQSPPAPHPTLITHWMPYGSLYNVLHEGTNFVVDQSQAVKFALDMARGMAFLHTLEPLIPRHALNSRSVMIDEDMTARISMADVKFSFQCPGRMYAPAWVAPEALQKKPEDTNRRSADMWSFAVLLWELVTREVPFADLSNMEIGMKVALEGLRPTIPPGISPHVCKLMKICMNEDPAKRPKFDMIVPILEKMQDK", "conditions": "DIA-MS residual binding; binder"}, "[7]": {"biological_target": "T2, Ephrin type-B receptor 2 ; EPHB2 ; P29323 (Homo sapiens, UniProt P29323)", "T2 sequence (P29323 1-1055)": "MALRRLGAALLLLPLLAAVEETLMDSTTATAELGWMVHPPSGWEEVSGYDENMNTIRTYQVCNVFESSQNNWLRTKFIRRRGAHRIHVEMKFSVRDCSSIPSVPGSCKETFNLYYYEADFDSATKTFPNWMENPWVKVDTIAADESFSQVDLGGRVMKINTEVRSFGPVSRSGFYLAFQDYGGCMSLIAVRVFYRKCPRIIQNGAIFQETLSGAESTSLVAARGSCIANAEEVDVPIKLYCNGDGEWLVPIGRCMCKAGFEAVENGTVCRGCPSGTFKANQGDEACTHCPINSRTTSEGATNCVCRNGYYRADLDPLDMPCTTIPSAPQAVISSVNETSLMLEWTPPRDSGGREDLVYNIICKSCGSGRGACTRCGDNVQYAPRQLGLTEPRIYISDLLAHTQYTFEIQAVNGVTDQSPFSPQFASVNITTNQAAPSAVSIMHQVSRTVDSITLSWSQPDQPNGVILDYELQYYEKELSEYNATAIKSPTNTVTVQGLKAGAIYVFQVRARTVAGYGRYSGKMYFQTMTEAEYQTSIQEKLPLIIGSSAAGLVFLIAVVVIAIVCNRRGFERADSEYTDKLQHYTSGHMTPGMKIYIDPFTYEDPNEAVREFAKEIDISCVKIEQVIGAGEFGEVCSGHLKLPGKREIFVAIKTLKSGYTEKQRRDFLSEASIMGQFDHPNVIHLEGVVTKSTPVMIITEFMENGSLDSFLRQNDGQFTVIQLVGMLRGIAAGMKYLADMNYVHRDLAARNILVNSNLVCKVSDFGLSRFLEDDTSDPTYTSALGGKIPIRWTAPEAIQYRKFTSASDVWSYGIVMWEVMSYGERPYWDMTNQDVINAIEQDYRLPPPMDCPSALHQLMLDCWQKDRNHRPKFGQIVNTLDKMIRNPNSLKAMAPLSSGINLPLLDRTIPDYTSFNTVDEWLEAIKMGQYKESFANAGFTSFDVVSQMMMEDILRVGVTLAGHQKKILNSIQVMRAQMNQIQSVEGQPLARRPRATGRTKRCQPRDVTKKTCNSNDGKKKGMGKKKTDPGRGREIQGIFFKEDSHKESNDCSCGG", "conditions": "DIA-MS residual binding; binder"}, "[8]": {"biological_target": "Tyrosine-protein kinase Lyn ; LYN ; P07948 (Homo sapiens, UniProt P07948)", "conditions": "DIA-MS residual binding; binder"}}}
{"smiles": "Cc1nc(Nc2ncc(C(=O)Nc3c(C)cccc3Cl)s2)cc(N2CCN(CCO)CC2)n1", "note": "[dasatinib]", "values": [{"measurement": "DIA-MS / % Intensity (30 µM/DMSO)", "setting": "[1]", "result": 31.23, "unit": "%"}, {"measurement": "DIA-MS / % Intensity (30 µM/DMSO)", "setting": "[2]", "result": 12.29, "unit": "%"}, {"measurement": "DIA-MS / % Intensity (30 µM/DMSO)", "setting": "[3]", "result": 30.34, "unit": "%"}, {"measurement": "DIA-MS / % Intensity (30 µM/DMSO)", "setting": "[4]", "result": 31.25, "unit": "%"}, {"measurement": "DIA-MS / % Intensity (30 µM/DMSO)", "setting": "[5]", "result": 6.728, "unit": "%"}, {"measurement": "DIA-MS / % Intensity (30 µM/DMSO)", "setting": "[6]", "result": 38.96, "unit": "%"}, {"measurement": "DIA-MS / % Intensity (30 µM/DMSO)", "setting": "[7]", "result": 3.776, "unit": "%"}, {"measurement": "DIA-MS / % Intensity (30 µM/DMSO)", "setting": "[8]", "result": 11.5, "unit": "%"}]}
